Experimental data from US12514859B2, “Pyrazole pyrimidine derivative and uses thereof” (Yissum Research Development Company of the Hebrew …, priority 2015, dated 2026).

Assays:
[1] = test system: p53, DNA damage response (γH2AX); experiment: p53 and DNA damage response activation in RKO cells (Western blot, primary screen and dose response); format: cell-based; settings: 16 hours, Western blot, average value
How it was run: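 RKO colorectal cells exposed to 10 μM compound (primary screen) or descending concentrations (dose response) for 16 h at 37° C. Lysates Western-blotted for β-catenin, p53, CKIα and phospho-H2AX (S139), ECL detection. p53/DDR activation and β-catenin stabilization scored semi-quantitatively by degree of protein stabilization across several blots.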

CML blast crisis mice = experiment: CML blast crisis mouse model (BCR-ABL); format: in vivo; settings: oral 10 mg/kg once a day, day 9
Experimental: Generation of a mouse model of CML blast crisis and inhibitor studies in this model. To generate the BCR-ABL-inducible chronic myeloid leukemia (CML) model, bone marrow (BM) cells from 10 weeks wild type mouse were extracted and enriched for cKit expressing cells (EasySep #18757) and incubated overnight at 37° C. in RPMI growth medium supplemented with 15% FCS, L-Glutamine, Pen/Strep (Biological Industries, Israel) and stem cell factor (SCF), IL-3, IL-6 and TPO (Peprotcch). The culture was then infected with p210BCR-ABL-IRES-GFP retrovirus construct containing supernatant medium for 4 hours, then growth medium was added and infected cells were incubated at 37° C. for additional 24 h. […] Upon observing a fast steady increase of GFP-expressing cells in the peripheral blood of inoculated mice (by FACS) and rising numbers of leukocyte and immature cells (detected by Wright-Giemsa stained blood films), mice were sacrificed and their BM cells were transferred to new sublethally irradiated WT hosts; each such transfer was termed disease generation. […] Blast crisis development was readily detectable by a highly abnormal number of blast cells, more than 30% of white blood cells (WBC) in the peripheral blood (PB), and short time intervals between transfers. […] Mice were monitored daily for cachexia, weight loss, lethargy, and ruff coats, and moribund mice were sacrificed upon moribund. […]

[2] = test system: bone marrow cells isolated from CML blast crisis mice; experiment: Ex vivo inhibitor effects on bone marrow cells from CML blast crisis mice; format: cell-based, mouse; settings: 8 hours
Experimental: Ex vivo inhibitor effects (FIGS. 2A and 13A-E). Freshly isolated BM from AML (13A-E) or CML blast crisis (2A) carrying mice were grown in RPMI supplemented with 15% FCS, L-Glutamine, Pen/Strep, Hepes, Sodium Pyruvate and non-essential amino acids (Biological Industries, Israel). CKI inhibitors (A14, A51, A75 or A86) were dissolved in DMSO and added to the tissue culture medium at the indicated concentrations; control cultures were treated with DMSO only. Several hours following treatment (as indicated in each experiment), cells were harvested and counted manually using a camera and standard inverted light microscope. Dead cells were excluded using Trypan Blue (Sigma). AnnexinV-PE (MBL), 7AAD (Tonbo) and PD-L1 (BioLegend) staining was evaluated by FACS according to manufacturer's recommendation.
FACS analysis. All assays were performed on BD's equipment: FACS caliber, FACS ARIA sorter or LSR II machines. For immunostaining, cells were suspended in a 1% BSA/PBS buffer with […]. Cells were then analyzed by using Annexin V PE Apootosis Detection Kit (eBioscience), 7-AAD (TONBO biosciences) and PE anti-mouse CD274 (B7-H1, PD-L1) antibody (clone 10F.9G2, BioLegend); Assays were performed according to the manufacturer's instruction. Monoclonal antibodies specific for CD16 and CD32 (Miltenyi Biotec) were used for blockade of Fc receptors before staining.

SMILES: Cn1ncc(-c2ccnc(N[C@H]3CC[C@H](N)CC3)n2)c1CC1CC1 [Compound A14, (1R, 4R)—N^1-(4-(5-(cyclopropylmethyl)-1-methyl-1H-pyrazol-4-yl)pyrimidin-2-yl)cyclohexane-1,4-diamine]
- DDR & p53 activity [1]: +++ (+++ indicates maximal β-catenin or p53 stabilization at >2 μM)
- leukemia cell burden in the peripheral blood and bone marrow (in words) (CML blast crisis mice): significantly reduces the leukemia cell burden
- apoptosis of bone marrow cells (Annexin5+/7AAD−) (in words) ([2]; dose dependent): induces apoptosis
- total death (7AAD+) cells (in words) ([2]; dose dependent): increased percentage of total death (7AAD+) cells
- leukemic cell number (in words) ([2]; dose response): dramatic reduction of the leukemic cell number
